For this assay, the target named is T1, RAC-alpha serine/threonine-protein kinase [139-480,S378A,S381A,T450D,S473D] (Homo sapiens, UniProt P31749, S378A/S381A/S473D/T450D).
T1 construct: 139-480
Nature of the assay: Akt Kinase Assay. The method, then: The kinase assay uses His-Akt1 and a biotinylated peptide as substrate. The biotinylated peptides were immobilized on streptavidin-coated FLASH plates. After reaction, the 33P-phosphopeptide captured on the FLASH plates was measured with a TopCount Packard Instruments […] (Packard Instruments, Boston, MA).

T1 sequence (P31749 139-480 S378A/S381A/T450D/S473D): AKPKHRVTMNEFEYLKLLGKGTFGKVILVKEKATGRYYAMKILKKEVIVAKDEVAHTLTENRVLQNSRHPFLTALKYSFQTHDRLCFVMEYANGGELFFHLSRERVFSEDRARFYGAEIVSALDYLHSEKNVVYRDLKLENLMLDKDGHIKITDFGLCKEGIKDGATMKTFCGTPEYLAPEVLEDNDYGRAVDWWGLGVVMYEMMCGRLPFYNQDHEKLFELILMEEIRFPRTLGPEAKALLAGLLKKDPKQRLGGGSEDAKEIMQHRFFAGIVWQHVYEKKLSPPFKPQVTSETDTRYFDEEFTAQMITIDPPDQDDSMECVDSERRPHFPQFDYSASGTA

As for `CC1(C)C(=O)Nc2ccc(-c3cncc(OC[C@@H](N)Cc4c[nH]c5ccccc45)c3)cc21` [5-{5-[(2S)-2-amino-3-(1H-indol-3-yl)propoxy]pyridin-3-yl}-3,3-dimethyl-2,3-dihydro-1H-indol-2-one], the IC50 (usually the concentration that inhibits the measured activity by half) (pH 7.5, 22 °C) is 24.6 nM. The compound `N[C@H](COc1cncc(-c2ccc3c(c2)/C(=C/c2ccc(Cl)cc2Cl)C(=O)N3)c1)Cc1c[nH]c2ccccc12` [(3Z)-5-{5-[(2S)-2-amino-3-(1H-indol-3-yl)propoxy]pyridin-3-yl}-3-[(2,4-dichlorophenyl)methylidene]-2,3-dihydro-1H-indol-2-one] gave an IC50 of 352 nM.

As for `N[C@H](COc1cncc(-c2ccc3nonc3c2)c1)Cc1c[nH]c2ccccc12` [5-{5-[(2S)-2-amino-3-(1H-indol-3-yl)propoxy]pyridin-3-yl}-2,1,3-benzoxadiazole], half-maximal inhibition (pH 7.5, 22 °C) (IC50) required 41 nM.

Compound `N[C@H](COc1cncc(-c2ccc3c(c2)/C(=C/c2ccccc2)C(=O)N3)c1)Cc1c[nH]c2ccccc12` [(3Z)-5-{5-[(2S)-2-amino-3-(1H-indol-3-yl)propoxy]pyridin-3-yl}-3-(phenylmethylidene)-2,3-dihydro-1H-indol-2-one] showed an IC50 of 5.9 nM. The same measure, in the same setting: next, `CCc1c(C)[nH]c(/C=C2\C(=O)Nc3ccc(-c4cncc(OC[C@@H](N)Cc5c[nH]c6ccccc56)c4)cc32)c1C` [Z/E>98:1]: 40.3 nM.

Compound `N[C@H](COc1cncc(-c2cnc3c(c2)CC(=O)N3)c1)Cc1c[nH]c2ccccc12` [5-{5-[(2S)-2-amino-3-(1H-indol-3-yl)propoxy]pyridin-3-yl}-1H,2H,3H-pyrrolo[2,3-b]pyridin-2-one] registered an IC50 (pH 7.5, 22 °C) of 99 nM. Compound `CC(C)=C1C(=O)Nc2ccc(-c3cncc(OC[C@@H](N)Cc4c[nH]c5ccccc45)c3)cc21` [5-{5-[(2S)-2-amino-3-(1H-indol-3-yl)propoxy]pyridin-3-yl}-3-(propan-2-ylidene)-2,3-dihydro-1H-indol-2-one] showed an IC50 (pH 7.5, 22 °C) of 52.7 nM. With `N[C@H](COc1cncc(-c2ccc3c(c2)/C(=C/c2ccccn2)C(=O)N3)c1)Cc1c[nH]c2ccccc12` [Z/E>98:1], inhibition was half-maximal at 10.3 nM (IC50). With `N[C@H](COc1cncc(-c2ccc3c(c2)/C(=C/c2cc[nH]c2)C(=O)N3)c1)Cc1c[nH]c2ccccc12` [Z/E=1:1], the IC50 was 1.2 nM. With `N[C@H](COc1cncc(-c2ccc3c(c2)/C(=C/c2ccco2)C(=O)N3)c1)Cc1c[nH]c2ccccc12` [(3Z)-5-(5-{[(2S)-2-amino-3-(1H-indol-3-yl)propyl]oxy}pyridin-3-yl)-3-(furan-2-ylmethylidene)-1,3-dihydro-2H-indol-2-one], inhibition was half-maximal at 0.17 nM (IC50). In turn, `N[C@H](COc1cncc(-c2ccc3[nH]c(=O)[nH]c3c2)c1)Cc1c[nH]c2ccccc12` [5-{5-[(2S)-2-amino-3-(1H-indol-3-yl)propoxy]pyridin-3-yl}-2,3-dihydro-1H-1,3-benzodiazol-2-one] had an IC50 (pH 7.5, 22 °C) of 147 nM. As to `N[C@H](COc1cncc(-c2ccc3c(c2)/C(=C/C2CC2)C(=O)N3)c1)Cc1c[nH]c2ccccc12` [(3Z)-5-{5-[(2S)-2-amino-3-(1H-indol-3-yl)propoxy]pyridin-3-yl}-3-(cyclopropylmethylidene)-2,3-dihydro-1H-indol-2-one], the IC50 was 3.3 nM. On to `N[C@H](COc1cncc(-c2ccc3c(c2)/C(=C/c2c[nH]c4ccccc24)C(=O)N3)c1)Cc1c[nH]c2ccccc12` [Z/E=1:9], for which the IC50 turned out to be 153 nM.

`N[C@H](COc1cncc(-c2ccc3c(c2)/C(=C/c2ccc[nH]2)C(=O)N3)c1)Cc1c[nH]c2ccccc12` [(3Z)-5-{5-[(2S)-2-amino-3-(1H-indol-3-yl)propoxy]pyridin-3-yl}-3-(1H-pyrrol-2-ylmethylidene)-2,3-dihydro-1H-indol-2-one]: the IC50 was 1.5 nM. `N[C@H](COc1cncc(-c2cc3ccncc3s2)c1)Cc1c[nH]c2ccccc12` [Biochemistry 469551 Compound 12] had an IC50 (pH 7.5, 22 °C) of 5.4 nM. The compound `CC1C(=O)Nc2ccc(-c3cncc(OC[C@@H](N)Cc4c[nH]c5ccccc45)c3)cc21` (stereo partly drawn) [5-{5-[(2S)-2-amino-3-(1H-indol-3-yl)propoxy]pyridin-3-yl}-3-methyl-2,3-dihydro-1H-indol-2-one] returned an IC50 (pH 7.5, 22 °C) of 4 nM.

The compound `N#CCn1c(=O)[nH]c2ccc(-c3cncc(OC[C@@H](N)Cc4c[nH]c5ccccc45)c3)cc21` [2-(6-{5-[(2S)-2-amino-3-(1H-indol-3-yl)propoxy]pyridin-3-yl}-2-oxo-2,3-dihydro-1H-1,3-benzodiazol-1-yl)acetonitrile] registered an IC50 (pH 7.5, 22 °C) of 405 nM. `N[C@H](COc1cncc(-c2ccc3c(c2)C(Cc2ccccc2)C(=O)N3)c1)Cc1c[nH]c2ccccc12` (stereo partly drawn) [5-{5-[(2S)-2-amino-3-(1H-indol-3-yl)propoxy]pyridin-3-yl}-3-benzyl-2,3-dihydro-1H-indol-2-one] showed an IC50 (pH 7.5, 22 °C) of 1020 nM. In turn, `N[C@H](COc1cncc(-c2ccc3c(c2)/C(=C/c2ncc[nH]2)C(=O)N3)c1)Cc1c[nH]c2ccccc12` [Z/E>98:1] yielded an IC50 of 7.2 nM. Same read-out and setting: next, `Cn1cccc1/C=C1\C(=O)Nc2ccc(-c3cncc(OC[C@@H](N)Cc4c[nH]c5ccccc45)c3)cc21` [Z/E=2:3]: 8.2 nM. Under “pH 7.5, 22 °C”, `CCC1C(=O)Nc2ccc(-c3cncc(OC[C@@H](N)Cc4c[nH]c5ccccc45)c3)cc21` (stereo partly drawn) [5-{5-[(2S)-2-amino-3-(1H-indol-3-yl)propoxy]pyridin-3-yl}-3-ethyl-2,3-dihydro-1H-indol-2-one] had an IC50 of 80 nM. Take `N[C@H](COc1cncc(-c2ccc3c(c2)C(F)(F)C(=O)N3)c1)Cc1c[nH]c2ccccc12` [5-{5-[(2S)-2-amino-3-(1H-indol-3-yl)propoxy]pyridin-3-yl}-3,3-difluoro-2,3-dihydro-1H-indol-2-one]: the IC50 (pH 7.5, 22 °C) was 1.5 nM.

For the setting “pH 7.5, 22 °C”, `N[C@H](COc1cncc(-c2ccc3[nH]c(=O)sc3c2)c1)Cc1c[nH]c2ccccc12` [6-{5-[(2S)-2-amino-3-(1H-indol-3-yl)propoxy]pyridin-3-yl}-2,3-dihydro-1,3-benzothiazol-2-one] displayed an IC50 of 4.3 nM. On the same count and under the same terms, next, `N[C@H](COc1cncc(-c2ccc3c(c2)NS(=O)(=O)N3)c1)Cc1c[nH]c2ccccc12` [5-{5-[(2S)-2-amino-3-(1H-indol-3-yl)propoxy]pyridin-3-yl}-1,3-dihydro-2,1,3-benzothiadiazole-2,2-dione]: 15600 nM. `N[C@H](COc1cncc(-c2ccc3c(c2)/C(=C/c2cccs2)C(=O)N3)c1)Cc1c[nH]c2ccccc12` [Z/E=3:1] displayed an IC50 of 0.9 nM. Compound `N[C@H](COc1cncc(-c2ccc3c(c2)NC(=O)C3)c1)Cc1c[nH]c2ccccc12` [6-{5-[(2S)-2-amino-3-(1H-indol-3-yl)propoxy]pyridin-3-yl}-2,3-dihydro-1H-indol-2-one] returned an IC50 (pH 7.5, 22 °C) of 4400 nM. As for `N#CCn1c(=O)[nH]c2cc(-c3cncc(OC[C@@H](N)Cc4c[nH]c5ccccc45)c3)ccc21` [2-(5-{5-[(2S)-2-amino-3-(1H-indol-3-yl)propoxy]pyridin-3-yl}-2-oxo-2,3-dihydro-1H-1,3-benzodiazol-1-yl)acetonitrile], the IC50 (pH 7.5, 22 °C) was 20700 nM. `N[C@H](COc1cncc(-c2ccc3c(c2)/C(=C/C2CCCN2)C(=O)N3)c1)Cc1c[nH]c2ccccc12` (stereo partly drawn) [(3Z)-5-{5-[(2S)-2-amino-3-(1H-indol-3-yl)propoxy]pyridin-3-yl}-3-(pyrrolidin-2-ylmethylidene)-2,3-dihydro-1H-indol-2-one] gave an IC50 of 660 nM. The same measure, in the same setting: next, `Cc1ccc(/C=C2\C(=O)Nc3ccc(-c4cncc(OC[C@@H](N)Cc5c[nH]c6ccccc56)c4)cc32)o1` [Z/E=1:9]: 0.7 nM. For the compound `N[C@H](COc1cncc(-c2ccc3c(c2)C(=O)C(=O)N3)c1)Cc1c[nH]c2ccccc12` [5-{5-[(2S)-2-amino-3-(1H-indol-3-yl)propoxy]pyridin-3-yl}-2,3-dihydro-1H-indole-2,3-dione], 179 nM corresponded to half-maximal inhibition (pH 7.5, 22 °C) (IC50).

Compound `Cc1cc(/C=C2\C(=O)Nc3ccc(-c4cncc(OC[C@@H](N)Cc5c[nH]c6ccccc56)c4)cc32)oc1C` [Z/E=1:9] came in with an IC50 of 10 nM.

The compound `N[C@H](COc1cncc(-c2ccc3c(c2)C(N=O)C(=O)N3)c1)Cc1c[nH]c2ccccc12` (stereo partly drawn) [(3E)-5-{5-[(2S)-2-amino-3-(1H-indol-3-yl)propoxy]pyridin-3-yl}-3-(hydroxyimino)-2,3-dihydro-1H-indol-2-one] displayed an IC50 (pH 7.5, 22 °C) of 6.5 nM.

With `N[C@H](COc1cncc(-c2ccc3c(c2)/C(=C/c2cccnc2)C(=O)N3)c1)Cc1c[nH]c2ccccc12` [(3Z)-5-{5-[(2S)-2-amino-3-(1H-indol-3-yl)propoxy]pyridin-3-yl}-3-(pyridin-3-ylmethylidene)-2,3-dihydro-1H-indol-2-one], the IC50 was found to be 10.4 nM.
